Tested on: 885724-159-R-J1-PDC complex spheroid viability
Assay: Anticancer human tumor 885724-159-R-J1-PDC patient-derived pancreatic adenocarcinoma cell line growth inhibition [POLQ]
Conditions: for IC50: curve of first compound; for viability, T/C: stronger effect = lower value; active = viability on the fitted dose curve at most 10% of control; inactive = the rest
In short: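 Three-cell-type spheroids modelling solid tumor plus stroma served as the readout system; POL inhibitors were tested individually and in combination, concentration ranges set by clinical Cmax where known.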

[1] = second compound 0.0316 µM, first compound 0.0316 µM
[2] = second compound 0.0316 µM, first compound 0.1 µM
[3] = second compound 0.0316 µM, first compound 0.316 µM
[4] = second compound 0.0316 µM, first compound 1 µM
[5] = second compound 0.0316 µM, first compound 3.16 µM
[6] = second compound 0.0316 µM, first compound 10 µM
[7] = second compound 0.1 µM, first compound 0.0316 µM
[8] = second compound 0.1 µM, first compound 0.1 µM
[9] = second compound 0.1 µM, first compound 0.316 µM
[10] = second compound 0.1 µM, first compound 1 µM
[11] = second compound 0.1 µM, first compound 3.16 µM
[12] = second compound 0.1 µM, first compound 10 µM
[13] = second compound 0.316 µM, first compound 0.0316 µM
[14] = second compound 0.316 µM, first compound 0.1 µM
[15] = second compound 0.316 µM, first compound 0.316 µM
[16] = second compound 0.316 µM, first compound 1 µM
[17] = second compound 0.316 µM, first compound 3.16 µM
[18] = second compound 0.316 µM, first compound 10 µM
[19] = second compound 1 µM, first compound 0.0316 µM
[20] = second compound 1 µM, first compound 0.1 µM
[21] = second compound 1 µM, first compound 0.316 µM
[22] = second compound 1 µM, first compound 1 µM
[23] = second compound 1 µM, first compound 3.16 µM
[24] = second compound 1 µM, first compound 10 µM
[25] = second compound 3.16 µM, first compound 0.0316 µM
[26] = second compound 3.16 µM, first compound 0.1 µM
[27] = second compound 3.16 µM, first compound 0.316 µM
[28] = second compound 3.16 µM, first compound 1 µM
[29] = second compound 3.16 µM, first compound 3.16 µM
[30] = second compound 3.16 µM, first compound 10 µM
[31] = second compound 10 µM, first compound 0.0316 µM
[32] = second compound 10 µM, first compound 0.1 µM
[33] = second compound 10 µM, first compound 0.316 µM
[34] = second compound 10 µM, first compound 1 µM
[35] = second compound 10 µM, first compound 3.16 µM
[36] = second compound 10 µM, first compound 10 µM
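Note: spheroids exposed to compounds for 7 days.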

C#Cc1c(F)ccc2cc(O)cc(-c3ncc4c(N5CC6CCC(C5)N6)nc(OCC56CCCN5CC(F)C6)nc4c3F)c12 (centres undefined) + Cc1cccc(N(C)C(=O)C2C(O)CCN2c2nc(C)cc(C(F)(F)F)c2C#N)c1
1.47 µM: IC50 (second compound 10 µM)
2.17 µM: IC50 (second compound 1 µM)
2.14 µM: IC50 (second compound 0.316 µM)
1.93 µM: IC50 (second compound 3.16 µM)
2.33 µM: IC50 (second compound 0.1 µM)
inactive: viability, T/C [1] 98.6% | viability, T/C [2] 92.6% | viability, T/C [3] 78.5% | viability, T/C [4] 72% | viability, T/C [5] 42.4% | viability, T/C [6] 19.9% | viability, T/C [7] 101% | viability, T/C [8] 93.1% | viability, T/C [9] 83.9% | viability, T/C [10] 68.8% | viability, T/C [11] 42.7% | viability, T/C [12] 18.4% | viability, T/C [13] 95.5% | viability, T/C [14] 87.5% | viability, T/C [15] 95.4% | viability, T/C [16] 70% | viability, T/C [17] 39.7% | viability, T/C [18] 20.6% | viability, T/C [19] 93.3% | viability, T/C [20] 101% | viability, T/C [21] 79.7% | viability, T/C [22] 64.5% | viability, T/C [23] 44.2% | viability, T/C [24] 21.2% | viability, T/C [25] 92.8% | viability, T/C [26] 94.2% | viability, T/C [27] 80.4% | viability, T/C [28] 62.8% | viability, T/C [29] 40.7% | viability, T/C [30] 19% | viability, T/C [31] 93.8% | viability, T/C [32] 81% | viability, T/C [33] 80.3% | viability, T/C [34] 55.3% | viability, T/C [35] 36.2% | viability, T/C [36] 19.9%
2.45 µM: IC50 (second compound 0.0316 µM)

C=CC(=O)N1CCN(c2nc(=O)n(-c3c(C)ccnc3C(C)C)c3nc(-c4c(O)cccc4F)c(F)cc23)C(C)C1 (centres undefined) + Cc1cccc(N(C)C(=O)C2C(O)CCN2c2nc(C)cc(C(F)(F)F)c2C#N)c1
> 10 µM: IC50 (second compound 0.0316 µM) | IC50 (second compound 0.1 µM) | IC50 (second compound 0.316 µM) | IC50 (second compound 1 µM) | IC50 (second compound 3.16 µM) | IC50 (second compound 10 µM)
inactive: viability, T/C [1] 105% | viability, T/C [2] 90.7% | viability, T/C [3] 99.5% | viability, T/C [4] 97.8% | viability, T/C [5] 104% | viability, T/C [6] 96.4% | viability, T/C [7] 95.4% | viability, T/C [8] 86.6% | viability, T/C [9] 99.1% | viability, T/C [10] 96.8% | viability, T/C [11] 108% | viability, T/C [12] 88.7% | viability, T/C [13] 98.6% | viability, T/C [14] 95% | viability, T/C [15] 91.3% | viability, T/C [16] 105% | viability, T/C [17] 105% | viability, T/C [18] 88% | viability, T/C [19] 94.8% | viability, T/C [20] 92.1% | viability, T/C [21] 95.3% | viability, T/C [22] 108% | viability, T/C [23] 103% | viability, T/C [24] 92.3% | viability, T/C [25] 98.5% | viability, T/C [26] 94.7% | viability, T/C [27] 98.8% | viability, T/C [28] 99.4% | viability, T/C [29] 110% | viability, T/C [30] 88.7% | viability, T/C [31] 95.4% | viability, T/C [32] 91.8% | viability, T/C [33] 96.1% | viability, T/C [34] 109% | viability, T/C [35] 107% | viability, T/C [36] 93.2%

Reference: PubChem BioAssay AID1963832 (Molecular Pharmacology Branch, DTP, NCI, 2024)
